Measurements reported in patent publication US20210290839A1, “SYSTEMS AND METHODS FOR DETECTING AND TREATING BACTERIAL BIOFILMS” (UNIVERSITY OF MARYLAND, COLLEGE PARK, priority 2017, published 2021).
Entries after “also recorded” stand apart in the source; their conditions may differ.

How the values were obtained:
Type in all cases: cell-based
[1] = test system: Escherichia coli (K12 W3110) biofilm; assay: Real-time impedance sensing of biofilm during 24-hour treatment period (FIG. 6A); conditions: BE: gentamicin 10 μg/ml plus sensing, AC 50 mV at 100 Hz, 30 s of every 150 s; 24-hour treatment of 24-hour biofilm; increase corresponds to removal of biofilm
Procedure: (§1) In particular, each experiment employed a flow system including a growth media reservoir, waste reservoir, and the detecting device connected using polymer tubing and luer connectors in between the reservoirs. Fluid was pumped through the flow system by a peristaltic pump. The detecting device and tubing were placed in an incubator maintained at 37° C., to mimic the temperature found in an inserted catheter. Escherichia coli (K12 W3110) were cultured in incubator at 37° C. and then diluted to an OD600 of 0.25. 1 ml of the diluted E. coli solution was then introduced into the catheter tube directly via syringe. The bacteria were allowed to attach to the interior surface under static (no flow) conditions for 2 hours (referred to as the Seeding phase). […] Throughout the Growth phase, the system impedance (Z) is measured by the detecting device every 2 minutes, with the relative change being used to monitor biofilm formation. […]
As noted above, the sensing voltage applied to the electrodes of the detecting device 300 can also synergistically enhances any antimicrobial agent present to deliver a bioelectric effect. FIG. 6A illustrates the measured impedance characteristics in experiments employing a detecting device fabricated according to the structure of FIGS. 3A-3B and employing a benchtop potentiostat as the voltage source. […]

[2] = test system: bacterial biofilm; assay: Real-time fractional relative change of impedance during treatment with threshold-triggered 100 mV signal (FIG. 7); conditions: 24 hour treatment
Procedure: FIG. 7 illustrates the fractional relative change of impedance measurements in experiments similar to that of FIG. 6B. In particular, treatment is performed by applying a 100 mV signal across the same electrodes used for impedance detection, in combination with near MIC levels of antibiotic, thereby generating a second bioelectric effect. This bioelectric effect was applied at regular intervals for only ˜1/7 of the total 24 hour treatment period.
The “E-field” curve represents an experiment where an intervallic 100 mV AC electrical signal (e.g., at 1 MHz) in addition to the periodic 5 mV AC detection voltage was applied to the electrodes, but without any antibiotic present. The “BE” curve represents an experiment where an intervallic 100 mV AC electrical signal (e.g., at 1 MHz) in addition to the periodic 5 mV AC detection voltage was applied to the electrodes, and with 10 μg/mL of gentamicin present. The decision to apply the 100 mV AC signal in both experiments was made by logic using the impedance data gathered in the sensing mode (i.e., using the 5 mV AC detection voltage). If the average sensing mode data point was less than a predefined threshold, then the larger 100 mV electric field treatment was applied; otherwise, the system continued in sensing mode with the periodic application of the 5 mV AC detection voltage. […]

[3] = test system: Escherichia coli (K12 W3110) biofilm; assay: Crystal violet absorbance assay biomass quantification (FIG. 6B); conditions: 24-hour treatment
Procedure: as §1, with “syringe.” for “syringe. The bacteria were allowed to attach to the interior surface under static (no flow) conditions for 2 hours (referred to as the Seeding phase).”
CV absorbance staining was used to quantify the end-point biomass and to validate the impedance measurements of FIG. 6A. […] Optical absorbance at a wavelength (λ) of 590 nm was then measured, with increases corresponding to increased biomass. One-way analysis of variance (ANOVA) was used to determine statistical significance of the biomass quantification results.
FIG. 6B illustrates the results of the CV absorbance assay for various treatment conditions in experiments employing a detecting device fabricated according to the structure of FIGS. 3A-3B and employing a benchtop potentiostat as the voltage source.

[4] = test system: bacterial biofilm; assay: End-point confocal microscopy quantification of bacterial biofilm thickness (FIG. 8); conditions: Combination: 100 μM autoinducer-2 analog isobutyl DPD plus 0.125V AC at 10 MHz offset by 0.125V DC, compared with either alone
Source text: FIG. 8 is a bar graph showing the results of end-point confocal microscopy quantification of bacterial biofilm thickness for different treatment conditions, including combined electrical measuring and quorum sensing inhibitors (e.g., autoinducer-2 analog).
Although the preceding paragraphs address the bioelectric effect based on antibiotics, similar results can be obtained with other antimicrobial agents, such as quorum sensing inhibitors. In particular, FIG. 8 illustrates the results of experiments for different treatment conditions using autoinducer-2 analog. “LB control” represents an experiment where no electric field or autoinducer-2 analog was present. “E-field only” represents an experiment where an electrical signal of 0.125V AC at 10 MHz offset by 0.125V DC was applied to electrodes, without any autoinducer-2 analog present. “AI-2 analog” represents an experiment where autoinducer-2 analog is introduced (e.g., 100 μM autoinducer-2 analog isobutyl DPD) without any electrical signal applied to the electrodes. “Combination” represents an experiment where the electrical signal is applied to the electrodes and autoinducer-2 analog is introduced.

Compound | impedance change during the treatment period [1] [%] | change in 100 Hz impedance at the end of treatment phase ([2]; "Antibiotic": 10 μg/mL gentamicin with periodic 5 mV AC detection voltage) | change in 100 Hz impedance at the end of treatment phase ([2]; "BE": 10 μg/mL gentamicin with intervallic 100 mV AC (1 MHz) plus periodic 5 mV AC detection voltage) | end-point biofilm biomass (CV absorbance at 590 nm) ([3]; Anti-only: antibiotic without impedance sensing) | end-point biofilm biomass (CV absorbance at 590 nm) ([3]; BE: sensing + antibiotic (gentamicin 10 μg/ml)) | reduction of biofilm thickness [4]
gentamicin | ~20 | increase in 100 Hz impedance; also recorded: as effective in treating the biofilm | increase in 100 Hz impedance | significantly higher biomass of biofilm | biomass similar to a bacteria-free control | –
CC(C)CC(=O)C(=O)C(O)CO (stereo not drawn) [autoinducer-2 analog, isobutyl DPD] | – | – | – | – | – | substantially improved efficacy in reducing biofilm thickness over either alone
